Laboratory results taken from patent publication US12295938B2, “Composition for treating castration-resistant prostate cancer, comprising quassinoids” (SAMSUNG LIFE PUBLIC WELFARE FOUNDATION, priority 2019, dated 2025).

Tests used:
[1] = system: AR-V7 transcriptional activity; experiment: MMTV-LUC luciferase reporter assay in 22RV1 cells, DHT− (screening and IC50); type: cell-based; conditions: 22RV1 cells, no DHT, control = 100
Procedure: (§1) A library of antimalarial agents was screened using a luciferase reporter assay to measure changes in AR/AR-V7 transcriptional activity.
(§2) Screening was made primarily with 10 μM of each drug.

[2] = system: AR transcriptional activity; experiment: MMTV-LUC luciferase reporter assay in 22RV1 cells, DHT+ (screening and IC50); type: cell-based; conditions: with DHT, control = 100
Procedure: as §1, §2

| Compound | activity at 10 µM ([1]; Homo sapiens, 10 uM) | activity at 10 µM ([2]; Homo sapiens, 10 uM) | MMTV-LUC activity (%) DHT− ([1]; 10 uM) | MMTV-LUC activity (%) DHT+ ([2]; 10 uM) | also measured |
| --- | --- | --- | --- | --- | --- |
| CO[C@H]1O[C@@H]2O[C@@]3(C)CC[C@H]4[C@H](C)CC[C@@H]([C@H]1C)[C@@]24OO3 [Artemether] | 97.5 ± 19.5% | 138 ± 8.8% |  |  |  |
| COC(=O)[C@]12OC[C@]34[C@H]([C@@H](O)[C@@H]1O)[C@@]1(C)C=C(O[C@@H]5O[C@H](CO)[C@@H](O)[C@H](O)[C@H]5O)C(=O)[C@@H](C)[C@@H]1C[C@H]3OC(=O)[C@H](OC(=O)/C=C(\C)C(C)C)[C@@H]24 [Bruceantinoside A] |  |  | 6.5 ± 0.9% | 3.8 ± 1.1% | MMTV-LUC activity (%) DHT− ([1]; 0.1 uM): 44.9 ± 5.5%; MMTV-LUC activity (%) DHT− ([1]; 1 uM): 11.5 ± 5.6%; MMTV-LUC activity (%) DHT+ ([2]; 0.1 uM): 61.0 ± 7.3%; MMTV-LUC activity (%) DHT+ ([2]; 1 uM): 8.0 ± 0.2% |
| COC(=O)[C@]12OC[C@]34[C@H]([C@@H](O)[C@@H]1O)[C@@]1(C)CC(=O)C(O[C@@H]5O[C@H](CO)[C@@H](O)[C@H](O)[C@H]5O)=C(C)[C@@H]1C[C@H]3OC(=O)[C@H](OC(C)=O)[C@@H]24 [Yadanzioside I] |  |  | 123.2 ± 10.4% | 136.0 ± 7.1% |  |
| C[C@@H]1CC[C@H]2[C@@H](C)C(=O)O[C@@H]3O[C@@]4(C)CC[C@@H]1[C@]32OO4 [Artemisinin] | 107 ± 4.3% | 156 ± 17.6% |  |  |  |
| CC1=CC(=O)[C@@H](O)[C@]2(C)[C@H]3[C@@H](O)[C@H](O)[C@]4(C)OC[C@@]35[C@@H](C[C@@H]12)OC(=O)[C@H](O)[C@]54O [Bruceine D] |  |  | 7.9 ± 1.3% | 1.1 ± 0.1% | MMTV-LUC activity (%) DHT− ([1]; 0.1 uM): 46.0 ± 6.4%; MMTV-LUC activity (%) DHT− ([1]; 1 uM): 7.0 ± 1.2%; MMTV-LUC activity (%) DHT+ ([2]; 0.1 uM): 32.6 ± 6.2%; MMTV-LUC activity (%) DHT+ ([2]; 1 uM): 2.0 ± 0.2% |
| CC1=CC(=O)c2c(O)cccc2C1=O [Plumbagin] | 26 ± 7.6% | 7.1 ± 0.1% |  |  | activity at 1 µM ([1]; Homo sapiens, 1 uM): 215 ± 16.1%; activity at 1 µM ([2]; Homo sapiens, 1 uM): 143 ± 27.5% |
| COC1=C[C@@H](C)[C@@H]2C[C@H]3OC(=O)C[C@H]4C(C)=C(OC)C(=O)[C@H]([C@@]2(C)C1=O)[C@@]34C [Quassin] | 110 ± 9% | 120 ± 5.6% |  |  |  |
| O=C(CCc1ccc(O)cc1)c1c(O)cc(O)cc1O[C@@H]1O[C@H](CO)[C@@H](O)[C@H](O)[C@H]1O [Phlorizin] | 154 ± 6.6% | 184 ± 12.6% |  |  |  |
| COC(=O)c1c2c(c3ccccc3c1O)OC(C)(C)C=C2 [Mollugin] | 94.7 ± 9.5% | 112 ± 11.1% |  |  |  |
| COC(=O)[C@]12OC[C@]34[C@H]([C@@H](O)[C@@H]1O)[C@@]1(C)C=C(O[C@@H]5O[C@H](CO)[C@@H](O)[C@H](O)[C@H]5O)C(=O)[C@@H](C)[C@@H]1C[C@H]3OC(=O)[C@H](OC(C)=O)[C@@H]24 [Yadanzioside F] |  |  | 133.6 ± 21.7% | 139.5 ± 11.0% |  |
| CC(=O)Oc1cccc2c1C(=O)c1c(OC(C)=O)cc(C(=O)O)cc1C2=O [1,8-Diacetoxy-3-carboxyanthraquinone] | 101 ± 8.7% | 98.5 ± 2.1% |  |  |  |
| CC(C)=CC[C@H](OC(=O)C=C(C)C)C1=CC(=O)c2c(O)ccc(O)c2C1=O [β, β-Dimethylacrylalkannin] |  |  | 33.3 ± 3.2% | 19.9 ± 3.5% | MMTV-LUC activity (%) DHT− ([1]; 1 uM): 100.2 ± 11.4%; MMTV-LUC activity (%) DHT+ ([2]; 1 uM): 107.9 ± 7.0% |
| C[C@H](CC(=O)C[C@@H](C)[C@H]1C[C@H](O)[C@@]2(C)C3=C(C(=O)C[C@]12C)[C@@]1(C)CCC(=O)C(C)(C)[C@@H]1C[C@@H]3O)C(=O)O [Ganoderic acid A] |  |  | 140.0 ± 3.8% | 148.9 ± 2.8% |  |
